From patent US7906477B2 (Genspera, Inc., priority 2002, dated 2011)
Blank lines part the entries; values can stand above or below the molecule they belong to. Square brackets hold non-standard residues; d marks the D form. Ends that are not written are not given here. Peptide text beside a SMILES is read from it. Tyr(3-NO2) = N[C@@H](Cc1ccc(O)c([N+](=O)[O-])c1)C(=O)O; Abz = aminobenzoic acid; 2Abz = Nc1ccccc1C(=O)O; Dap = NC[C@H](N)C(=O)O

Assays:
hK2 = molecular target: T1, hK2 (Homo sapiens, UniProt P20151); assay: hK2 mediated hydrolysis of peptide substrates in solution (fluorescence); assay type: biochemical; conditions: for digestion by hK2 of arginine-free peptides (in words): in solution, even after prolonged incubation; for hK2 mediated hydrolysis (in words, FIG. 2): substrates 250 μM, 8 μg/ml hK2 in PBS buffer
T1 construct: made in house
Experimental: FIG. 2 depicts a graph of hK2 mediated hydrolysis of peptide substrates identified through the screening of a random peptide library [Y′GKARAF-Dap-FK′ (SEQ ID NO:36), Y′GKAKPR-Dap-FK′ (SEQ ID NO:37), Y′GKAFRR-Dap-FK′ (SEQ ID NO:38), Y′GKAMRQ-Dap-FK′ (SEQ ID NO:39) and Y′GSKGHFKL-Dap-F-K′ (SEQ ID NO:40)]. Substrates (250 μM) were incubated with 8 μg/ml hK2 in PBS buffer. Hydrolysis of peptide results in increased fluorescence, as measured using a 96 well fluorometer. […] To determine 100% digestion, trypsin was added (50 mg/ml) and samples were incubated to 37° C. for 30 min and the fluorescence was determined. The percentage digested is determined by dividing fluorescence units of sample by fluorescence units of control fully digested peptide.
A mutant form of hK2 was utilized in which the amino acids −5 to −1 of the propeptide sequence of hK2 (i.e. Leu-Ile-Gln-Ser-Arg; SEQ ID NO:15) were mutated to Asp-Asp-Asp-Asp-Lys (SEQ ID NO:16) to generate a pro-hK2 protein that can be activated to functional hK2 by […] (Lovgren, J. et al. (1999) Eur. J. Biochem. 266:1050-1055). Compared with wild-type hK2, expression of the propeptide hK2 mutant increases the expression levels up to 15-40-fold (Lovgren, J. et al. (1999) Eur. J. Biochem. 266:1050-1055). The generation and characteristics of this mutant hK2 have been previously described (Lovgren, J. et al. (1999) Eur. J. Biochem. 266:1050-1055).
For validation of the Edman results, peptides were re-synthesized using a Rainin PS3 peptide synthesizer with HBTU/NMM activation. Peptides were synthesized on PEGA resin for on-bead analysis or on Fmoc-Lys(Mtt)-Wang resin for solution assays. The Fmoc-Lys(Mtt)-Wang resin was first deprotected with 2% TFA in DCM (3×2 min). The ε-amine of lysine was then acylated with Boc-Abz. Deprotection/cleavage was performed in TFA/TIS/water (95:2.5:2.5 v/v) for 2-3 hours. Peptides were ether precipitated, dried and purified by C18-HPLC using a linear gradient of acetonitrile (0.1% TFA), lyophilized and dissolved in DMSO. Peptide identities were confirmed by analysis on a Perseptive Voyager DE-STR MALDI-TOF using dihydroxy benzoic acid as a matrix. Fluorescence measurements were performed on a Fluoroskan II 96-well plate reader (ICN biomedicals, Costa Mesa, Calif.; excitation, 355 nm; emission, 460 nm). Kinetic parameters were calculated as described earlier (Denmeade, S. R. et al. (1997) Cancer Res. 57:4924-4930).
The combinatorial screen identified seven arginine-containing peptides. Four of these were re-synthesized (X1-X2-X3=RAF, KPR, FRR and MRQ respectively). Three other lead sequences were not re-synthesized (X1-X2-X3=IQR, FRK and VRQ respectively). All four arginine-containing sequences that were re-synthesized reproduced fluorescence when these peptides were digested on-bead with hK2. For a more quantitative analysis, the fluorescence-quenched peptides were cleaved off the resin and purified by HPLC. The rate of hydrolysis was quantified by measuring increase in fluorescence (Figure). […] In less than five minutes, more than 50% of the peptide was digested (500 μM peptide, 4 μg/ml hK2). For the other peptides, digestion of the same amount of peptide took 19-29 minutes. […] In subsequent studies, hydrolysis rates using the Y′GKAFRR-Dap-F-K′ (SEQ ID NO:38) peptide were analyzed by Lineweaver-Burke reciprocal plots.

[1] = plasma stability in 50% human plasma; assay type: in vitro ADME; conditions: for remaining at 3 h, 500 μM: HPLC, read-out: parent peptide remaining after 3 hours; for degradation after overnight incubation (in words): human plasma
Experimental: FIG. 5 depicts the stability of Ac-GKAFRR-L12ADT (SEQ ID NO:41) in human plasma after a 24 hour incubation, as determined by HPLC analysis. Ac-GKAFRR-L12ADT (SEQ ID NO:41) was incubated in 50% human plasma for 24 hours at room temperature. Peak 1 represents an unidentified plasma contaminant that was also present in control plasma. Peaks 2 and 3 both represent Ac-GKAFRR-L12ADT (SEQ ID NO:41) as confirmed by MALDI-TOF mass spectrometric analysis.
(§1) Mouse plasma was obtained from cardiac puncture of anesthetized mice prior to euthanization by CO2 overdose according to protocols approved by the Johns Hopkins Animal Care and Use Committee. Human plasma was obtained from discarded, pooled, and unlabeled clinical samples. Plasma was diluted to 50% in Tris buffer (50 mM Tris-HCl, 100 mM NaCl, pH 7.8). To this, test peptides/prodrugs were added to 250 or 500 μM final concentration. After the incubation period, one volume (200 μl) of acetonitrile was added to precipitate the protein fraction and the tube was centrifuged at 14,000 for 2 min. The supernatant was analyzed by C18-HPLC and the collected peaks were analyzed by MALDI-TOF as described above.
(§2) Arginine-containing peptides are potential substrates for the wide variety of other trypsin-like proteases that are present in the blood and may have residual activity in the blood. The plasma stability of an hK2 peptide substrate may therefore be limited and this would have significant consequences related to the development of an hK2 activated prodrug. Therefore, two fluorescence quenched hK2 peptide substrates peptides were incubated in 50% mouse or human plasma (diluted in PBS buffer) to determine stability using a plate-reader. As observed with arginine containing peptides from the SPOT analysis above, none of the arginine-containing, fluorescence quenched hK2peptide substrates were stable in human or mouse plasma. Fluorescence-quenched Y′GKAFRR-Dap-GK′ (SEQ ID NO:42) and Y′GKAFRRLGK′ (SEQ ID NO:21) (500 μM each) were hydrolyzed when incubated in 50% mouse or human plasma (FIG. 7). Mouse plasma degraded the peptides faster than human plasma (FIG. 7). […] In human plasma, more peptide remained after 3 hours (˜25%). […] The proteolytic activity from plasma was never affected by repeated freeze-thaw cycles or by storage of the mouse plasma alone at room temperature for several days.
To determine the plasma stability for the hK2 prodrug, the prodrug was incubated in 50% fresh heparinized (1%) plasma for 24 hours at room temperature, precipitated the proteins by adding one volume of 1% TFA in acetonitrile and analyzed the supernatant by HPLC. Unexpectedly, BPLC analysis after 24 hrs incubation in plasma yielded only a single peak corresponding to the hK2 prodrug (FIG. 5). MALDI-TOF MS of the isolated single peak confirmed the stability of the molecule.

[2] = plasma stability in 50% mouse plasma; assay type: in vitro ADME; conditions: 500 μM; for parent peptide remaining after 3 hours (in words): HPLC
Experimental: as §1, §2

T1 sequence (P20151 25-261): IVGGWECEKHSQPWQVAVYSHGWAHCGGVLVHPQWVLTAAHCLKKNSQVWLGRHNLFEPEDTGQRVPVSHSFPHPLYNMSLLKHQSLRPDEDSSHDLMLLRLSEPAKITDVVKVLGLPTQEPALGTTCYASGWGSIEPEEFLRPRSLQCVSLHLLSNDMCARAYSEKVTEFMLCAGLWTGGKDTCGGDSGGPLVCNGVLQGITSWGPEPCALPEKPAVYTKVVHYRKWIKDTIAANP

Molecule: Y′GSKGPFKL-Dap-K′: arginine-free fluorescence-quenched peptide derivative ([Tyr(3-NO2)]GSKGPFKL[Dap]K(Abz))
digestion by hK2 of arginine-free peptides (in words) (hK2): none of these three arginine free peptides were digested by hK2

Molecule: Y′GSKGHFKL-Dap-K′: arginine-free fluorescence-quenched peptide, P1 lysine ([Tyr(3-NO2)]GSKGHFKL[Dap]K(Abz))
digestion by hK2 of arginine-free peptides (in words) (hK2): none of these three arginine free peptides were digested by hK2

Molecule: C[C@H](NC(=O)[C@H](CCCCN)NC(=O)CNC(=O)[C@@H](N)Cc1ccc(O)c([N+](=O)[O-])c1)C(=O)N[C@@H](Cc1ccccc1)C(=O)N[C@@H](CCCNC(=N)N)C(=O)N[C@@H](CCCNC(=N)N)C(=O)N[C@@H](CN)C(=O)N[C@@H](Cc1ccccc1)C(=O)N[C@@H](CCCCNC(=O)c1ccccc1N)C(=O)O [Y′GKAFRR-Dap-F-K′] (H-[Tyr(3-NO2)]GKAFRR[Dap]FK(2Abz)-OH; N-terminus assumed)
maximum digestion (hK2; 500 μM peptide, 4 μg/ml hK2): 70-75%
time in which more than 50% of the peptide was digested (hK2; 500 μM peptide, 4 μg/ml hK2): less than five
time to reach maximum digestion (hK2; 500 μM peptide, 4 μg/ml hK2): less than 15 minutes
hK2 mediated hydrolysis (in words, FIG. 2) (hK2): by far exceeded all other substrates

Molecule: C[C@H](NC(=O)[C@H](CCCCN)NC(=O)CNC(=O)[C@@H](N)Cc1ccc(O)c([N+](=O)[O-])c1)C(=O)N[C@@H](Cc1ccccc1)C(=O)N[C@@H](CCCNC(=N)N)C(=O)N[C@@H](CCCNC(=N)N)C(=O)N[C@@H](CN)C(=O)NCC(=O)N[C@@H](CCCCNC(=O)c1ccccc1N)C(=O)O [Y′GKAFRR-Dap-GK′] (H-[Tyr(3-NO2)]GKAFRR[Dap]GK(2Abz)-OH; N-terminus assumed)
remaining at 3 h, 500 μM ([1]; 50% human plasma, 500 μM): ~25%
degradation after overnight incubation (in words) [1]: complete degradation
parent peptide remaining after 3 hours (in words) [2]: almost no parent peptide remained

Molecule: CC(C)C[C@H](NC(=O)[C@H](CCCNC(=N)N)NC(=O)[C@H](CCCNC(=N)N)NC(=O)[C@H](Cc1ccccc1)NC(=O)[C@H](C)NC(=O)[C@H](CCCCN)NC(=O)CNC(=O)[C@@H](N)Cc1ccc(O)c([N+](=O)[O-])c1)C(=O)NCC(=O)N[C@@H](CCCCNC(=O)c1ccccc1N)C(=O)O [Y′GKAFRRLGK′] (H-[Tyr(3-NO2)]GKAFRRLGK(2Abz)-OH)
hK2 hydrolysis rate after substitution of Dap-F with Leu-Gly (in words) (hK2; compare FIG. 2 with FIG. 8): only a modest decrease in hydrolysis rate
relative stability of the peptides (in words) ([1]; 50% human plasma, 500 μM): less stable than the Dap containing peptide
remaining at 3 h, 500 μM ([1]; 50% human plasma, 500 μM): ~25%
degradation after overnight incubation (in words) [1]: complete degradation
relative stability of the peptides (in words) [2]: less stable than the Dap containing peptide
parent peptide remaining after 3 hours (in words) [2]: almost no parent peptide remained

Molecule: Y′GSKGHFHL-Dap-K′: arginine-free fluorescence-quenched peptide from SPOT analysis sequence ([Tyr(3-NO2)]GSKGHFHL[Dap]K(Abz))
digestion by hK2 of arginine-free peptides (in words) (hK2): none of these three arginine free peptides were digested by hK2

hK2 mediated hydrolysis (in words, FIG. 2) (hK2): did not show any hydrolysis
Molecule: Y′GSKGHFKL-Dap-F-K′: fluorescence-quenched substrate without arginine ([Tyr(3-NO2)]GSKGHFKL[Dap]FK(Abz))
